Key:
Type in all cases: cell-based
[1] = tested on: YAP/TAZ-TEAD transcription; test: Reporter gene assay (TEAD-responsive element luciferase reporter in Hek293T cells) for inhibition of YAP/TAZ-TEAD transcription; conditions: 24 hours incubation
Method: Hek293T cells are cultured in DMEM supplemented with 10% fetal bovine serum, Sodium pyruvate, Sodium bicarbonate, L-glutamine. The cells are harvested and transiently transfected with TEAD-responsive element luciferase reporter. Transfected cells are plated in 384-wells plate containing pre-diluted compounds. After 24 hours incubation at 37° C./5% CO2, assay plates were cooled down to RT and levelled to an equal volume per well, prior to the addition of 25 uL luciferase substrate SteadyLite (Perkin Elmer)/well. The plate was shaken for 10 min at 600 rpm, centrifuged for 1 min at 500 rpm and measured with an Envision reader (PerkinElmer). The amount of relative light units produced by the TEAD reporter is used to calculated percent of inhibition.
The percent of reporter inhibition was calculated in the presence of a positive control inhibitor (100% inhibition)versus a condition with the presence of the vehicle basal activity of the reporter (0% inhibition). The ability of a test compound to inhibit this activity was determined as:
Percentage inhibition=[1-((RLU determined in the presence of vehicle−RLU determined for sample with test compound present) divided by (RLU determined in the presence of vehicle−RLU determined for sample with positive control inhibitor))]*100
The activities of example compounds tested are depicted in Table 3. The activity ranges A, B and C refer to IC50 values in the reporter gene assay as follows: “A”: IC50<1 μM; “B”: 1 μM≤IC50≤20 μM and “C”: IC50>20 μM; NT=not tested.

[2] = tested on: NCI-H226; test: Mesothelioma cell line proliferation assay (ATPlite), NCI-H226; conditions: Homo sapiens, 144 h; NCI-H226 mesothelioma cells, 6 days incubation, ATPlite cell viability
Method: (§1) Mesothelioma cell lines, NCI-H226 and NCI-H2052 (all sourced from the ATCC cell culture collection) are plated in 96-well plates (Corning® 96 Well White Polystyrene Microplate clear flat bottom, white polystyrene (TC-Treated)), at 1500 cells/well in full medium (RPMI 1640 ATCC modification with L-glutamine, HEPES, Phenol Red, Sodium Pyruvate, High glucose, Low sodium bicarbonate and 10% fetal bovine serum). Cells are incubated overnight at 37° C. in an incubator with 5% CO2. Then compounds, dissolved in DMSO, are added in dose-response. Cells are incubated with compound dilutions for another 6 days at 37° C. in an incubator with 5% CO2. Cell viability is quantitated using the ATPlite kit (Perkin-Elmer) and the luminescence is read-out using an Envision instrument (Perkin-Elmer). The amount of relative light units produced using the ATPlite kit is used to calculated percent of inhibition.
(§2) The activities of some example compounds are depicted in Table 4. The activity ranges A, B and C refer to EC50 values in the mesothelioma cell line proliferation assay as described as follows: “A”: EC50<1 μM; “B”: 1 μM≤EC50≤10 μM and “C”: EC50>10 μM; NT: not tested.

[3] = tested on: NCI-H2052; test: Mesothelioma cell line proliferation assay (ATPlite), NCI-H2052; conditions: Homo sapiens, 144 h; NCI-H2052 mesothelioma cells, 6 days incubation, ATPlite cell viability
Method: as §1, §2

| IC50 [1] | IC50 ([1]; Homo sapiens, HEK-293T) | EC50 [2] | EC50 [3] | SMILES |
| --- | --- | --- | --- | --- |
| < 1 µM | – | – | – | C=CC(=O)NC1CCc2ccccc2N(c2ccc(C(F)(F)F)cc2)C1 (single isomer, unassigned) [Cpd. No. 008-En2, (R)- or (S)-N-(1-(4-(trifluoromethyl)phenyl)-2,3,4,5-tetrahydro-1H-benzo[b]azepin-3-yl)acrylamide] |
| – | 1 to 20 µM | – | – | C=CC(=O)NC1Cc2cnccc2N(c2ccc(C(F)(F)F)cc2)C1=O (stereo not drawn) [Cpd. No. 015, N-(2-oxo-1-(4-(trifluoromethyl)phenyl)-1,2,3,4-tetrahydro-1,6-naphthyridin-3-yl)acrylamide] |
| – | 1 to 20 µM | – | – | O=C1CCCN(c2ccc(C(F)(F)F)cc2)c2ccc(NCCO)cc21 [Cpd. No. 011, 7-((2-hydroxyethyl)amino)-1-(4-(trifluoromethyl)phenyl)-1,2,3,4-tetrahydro-5H-benzo[b]azepin-5-one] |
| – | > 20 µM | – | – | NC1CCc2ccccc2N(c2ccc(C(F)(F)F)cc2)C1=O (stereo not drawn) [Cpd. No. 002, 3-amino-1-(4-(trifluoromethyl)phenyl)-1,3,4,5-tetrahydro-2H-benzo[b]azepin-2-one] |
| – | < 1 µM | – | – | C=CC(=O)NC1CCc2ccccc2N(c2ccc(C(F)(F)F)cc2)C1 (single isomer, unassigned) [Cpd. No. 008-En1, (R)- or (S)-N-(1-(4-(trifluoromethyl)phenyl)-2,3,4,5-tetrahydro-1H-benzo[b]azepin-3-yl)acrylamide] |
| – | < 1 µM | < 1000 nM | < 1000 nM | C=CC(=O)NC1Cc2c(F)cccc2N(c2ccc(C(F)(F)F)cc2)C1=O (stereo not drawn) [Cpd. No. 014, N-(5-fluoro-2-oxo-1-(4-(trifluoromethyl)phenyl)-1,2,3,4-tetrahydroquinolin-3-yl)acrylamide] |
| – | 1 to 20 µM | – | – | OCCCNC1CCc2ccccc2N(c2ccc(C(F)(F)F)cc2)C1 (stereo not drawn) [Cpd. No. 005, 3-((1-(4-(trifluoromethyl)phenyl)-2,3,4,5-tetrahydro-1H-benzo[b]azepin-3-yl)amino)propan-1-ol] |
| – | 1 to 20 µM | > 10000 nM | > 10000 nM | OCCNC1CCc2ccccc2N(c2ccc(C(F)(F)F)cc2)C1 (stereo not drawn) [Cpd. No. 003, 2-((1-(4-(trifluoromethyl)phenyl)-2,3,4,5-tetrahydro-1H-benzo[b]azepin-3-yl)amino)ethan-1-ol] |
| 1 to 20 µM | – | – | – | OCCNC1CCc2ccccc2N(c2ccc(C(F)(F)F)cc2)C1 (single isomer, unassigned) [Cpd. No. 003-En2, (R)- or (S)-2-((1-(4-(trifluoromethyl)phenyl)-2,3,4,5-tetrahydro-1H-benzo[b]azepin-3-yl)amino)ethan-1-ol] |
| – | 1 to 20 µM | – | – | CCC(=O)NC1CCc2ccccc2N(c2ccc(C(F)(F)F)cc2)C1 (stereo not drawn) [Cpd. No. 009, N-(1-(4-(trifluoromethyl)phenyl)-2,3,4,5-tetrahydro-1H-benzo[b]azepin-3-yl)propionamide] |
| – | > 20 µM | – | – | O=C1C(NCCCO)CCc2ccccc2N1c1ccc(C(F)(F)F)cc1 (stereo not drawn) [Cpd. No. 007, 3-((3-hydroxypropyl)amino)-1-(4-(trifluoromethyl)phenyl)-1,3,4,5-tetrahydro-2H-benzo[b]azepin-2-one] |
| – | > 20 µM | – | – | O=C1CCCN(c2ccc(C(F)(F)F)cc2)c2ccc(NCCCO)cc21 [Cpd. No. 012, 7-((3-hydroxypropyl)amino)-1-(4-(trifluoromethyl)phenyl)-1,2,3,4-tetrahydro-5H-benzo[b]azepin-5-one] |
| – | 1 to 20 µM | < 1000 nM | < 1000 nM | C=CC(=O)NC1CCc2ccccc2N(c2ccc(C(F)(F)F)cc2)C1 (stereo not drawn) [Cpd. No. 008, N-(1-(4-(trifluoromethyl)phenyl)-2,3,4,5-tetrahydro-1H-benzo[b]azepin-3-yl)acrylamide] |
| – | 1 to 20 µM | – | – | NC1CCc2ccccc2N(c2ccc(C(F)(F)F)cc2)C1 (stereo not drawn) [Cpd. No. 001, 1-(4-(trifluoromethyl)phenyl)-2,3,4,5-tetrahydro-1H-benzo[b]azepin-3-amine] |
| – | 1 to 20 µM | – | – | OCCNC1CCc2ccccc2N(c2ccc(C(F)(F)F)cc2)C1 (single isomer, unassigned) [Cpd. No. 003-En1, (R)- or (S)-2-((1-(4-(trifluoromethyl)phenyl)-2,3,4,5-tetrahydro-1H-benzo[b]azepin-3-yl)amino)ethan-1-ol] |
| – | > 20 µM | – | – | C=CC(=O)NC1CCc2ccccc2N(c2ccc(C(F)(F)F)cc2)C1=O (stereo not drawn) [Cpd. No. 010, N-(2-oxo-1-(4-(trifluoromethyl)phenyl)-2,3,4,5-tetrahydro-1H-benzo[b]azepin-3-yl)acrylamide] |
| – | > 20 µM | – | – | O=C(O)CCNC1CCc2ccccc2N(c2ccc(C(F)(F)F)cc2)C1 (stereo not drawn) [Cpd. No. 006, 3-((1-(4-(trifluoromethyl)phenyl)-2,3,4,5-tetrahydro-1H-benzo[b]azepin-3-yl)amino)propanoic acid] |
| – | 1 to 20 µM | – | – | O=C1C(NCCO)CCc2ccccc2N1c1ccc(C(F)(F)F)cc1 (stereo not drawn) [Cpd. No. 004, 3-((2-hydroxyethyl)amino)-1-(4-(trifluoromethyl)phenyl)-1,3,4,5-tetrahydro-2H-benzo[b]azepin-2-one] |
| – | < 1 µM | < 1000 nM | < 1000 nM | C=CC(=O)NC1Cc2ccccc2N(c2ccc(C(F)(F)F)cc2)C1=O (stereo not drawn) [Cpd. No. 013, N-(2-oxo-1-(4-(trifluoromethyl)phenyl)-1,2,3,4-tetrahydroquinolin-3-yl)acrylamide] |
